Reference: publication PMC5862982 (ACS chemical neuroscience, 2017)

How the values were obtained:
[1] = molecular target: puromycin-sensitive aminopeptidase (PSA, EC 3.4.11.14); conditions: cited from earlier work
[2] = test system: ectopeptidases in whole OHSCs; conditions: EO sampling; cited from earlier work
[3] = molecular target: aminopeptidase N (APN, EC 3.4.11.2); conditions: cited from earlier work
[4] = molecular target: T1, membrane-bound aminopeptidase activity in the CA1 (Rattus norvegicus, UniProt P15684); assay type: biochemical
T1 sequence (P15684 2-965): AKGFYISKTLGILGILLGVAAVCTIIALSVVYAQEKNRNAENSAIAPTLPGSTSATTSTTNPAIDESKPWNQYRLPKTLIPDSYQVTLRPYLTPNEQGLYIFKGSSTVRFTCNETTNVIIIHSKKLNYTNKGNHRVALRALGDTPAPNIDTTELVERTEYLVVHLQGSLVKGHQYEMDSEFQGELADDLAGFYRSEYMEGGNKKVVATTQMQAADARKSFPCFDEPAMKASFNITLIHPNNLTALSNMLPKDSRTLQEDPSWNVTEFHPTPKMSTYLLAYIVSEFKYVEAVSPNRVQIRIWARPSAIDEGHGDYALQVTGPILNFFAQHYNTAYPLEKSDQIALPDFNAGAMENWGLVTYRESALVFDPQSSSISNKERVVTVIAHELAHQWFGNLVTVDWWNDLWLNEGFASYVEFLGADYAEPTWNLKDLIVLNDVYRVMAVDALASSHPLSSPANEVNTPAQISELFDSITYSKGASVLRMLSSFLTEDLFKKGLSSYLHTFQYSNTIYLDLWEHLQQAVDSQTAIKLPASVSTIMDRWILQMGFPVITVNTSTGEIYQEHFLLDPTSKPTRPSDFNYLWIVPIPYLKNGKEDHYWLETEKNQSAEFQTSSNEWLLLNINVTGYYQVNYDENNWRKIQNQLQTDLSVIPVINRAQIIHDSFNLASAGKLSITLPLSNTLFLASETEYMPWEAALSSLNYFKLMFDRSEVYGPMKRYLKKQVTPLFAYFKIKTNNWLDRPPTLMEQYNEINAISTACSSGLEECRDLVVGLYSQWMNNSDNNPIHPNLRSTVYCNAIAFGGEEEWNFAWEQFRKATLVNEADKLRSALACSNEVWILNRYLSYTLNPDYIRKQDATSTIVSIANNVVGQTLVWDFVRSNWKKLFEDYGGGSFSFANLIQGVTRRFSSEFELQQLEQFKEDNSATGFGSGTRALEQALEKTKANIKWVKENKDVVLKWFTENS

[5] = molecular target: T2, membrane-bound aminopeptidase activity in the CA3 (Rattus norvegicus, UniProt P15684); assay type: biochemical
T2 sequence (P15684 2-965): T1 sequence (P15684 2-965)

SMILES	Ki [1] [µM]	effect on hydrolysis of exogenously applied YGGFL [2]	Ki [3] [µM]	Ki [4] [µM]	Ki [5] [µM]
COc1ccc(C[C@H](N)C(=O)N[C@H]2[C@@H](O)[C@H](n3cnc4c(N(C)C)ncnc43)O[C@@H]2CO)cc1 [puromycin]	1	little to no effect	100	–	–
CC(C)C[C@H](NC(=O)[C@@H](O)[C@H](N)Cc1ccccc1)C(=O)O [bestatin]	0.5	–	–	12 ± 9	11 ± 7
